The results in this text go back to patent publication US20260234139A1, “PGDH INHIBITORS AND METHODS OF MAKING AND USING” (Epirium Bio Inc., priority 2023, published 2026).

Some results are limits rather than exact numbers.

In one experiment the test system is A549. The experiment in a line: A549 EC50 (cell assay, method not described). The experiment is classed as cell-based. As to conditions: Homo sapiens, A549, A549.
For another experiment, the target named is T1, 15-PGDH/HPGD (Homo sapiens, UniProt P15428).
T1 construct: purchased R&D System 5660-DH
T1 sequence (P15428 1-266): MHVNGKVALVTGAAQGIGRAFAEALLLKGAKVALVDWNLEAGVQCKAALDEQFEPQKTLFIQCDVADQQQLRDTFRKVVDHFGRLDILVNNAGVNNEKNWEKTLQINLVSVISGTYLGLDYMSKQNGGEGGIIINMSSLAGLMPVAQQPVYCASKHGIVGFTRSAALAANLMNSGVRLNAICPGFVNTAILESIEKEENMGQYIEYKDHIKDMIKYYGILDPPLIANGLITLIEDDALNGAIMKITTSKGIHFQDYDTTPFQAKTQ
The experiment in a line: hPGDH inhibitor screening biochemical assay. Conditions: 10 nM enzyme, 15 μM Prostaglandin E2, 0.25 mM NAD, fluorescence ex/em 340/485 nm. The gist of the method: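 Recombinant 15-PGDH (10 nM) preincubated with compound 10 min at 37° C, then 15 μM PGE2 and 0.25 mM NAD⁺ added for 10 min at room temperature in 50 mM Tris-HCl pH 7.5, 0.01% Tween 20. NADH fluorescence at ex/em 340/485 nm; 10-point dose response.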

A word on the EC50: it is the midpoint of the concentration-response curve. Read a low EC50 as greater potency. Usually IC50 stands for the midpoint of a concentration-inhibition curve. Lower therefore signals inhibition by little substance. `O[C@@H](COC1CCC1)c1cnc2c(cnn2-c2cccc(-c3nnc[nH]3)c2)c1` [Compound 24A] showed an EC50 with A549 of 100 to 1000 nM. At 15-PGDH/HPGD, this molecule registered an IC50 of less than 100 nM.
The matching figures for `O[C@@H](c1cnc2c(cnn2-c2cccc(-c3nnc[nH]3)c2)c1)[C@@H]1CCOC1` [Compound 68A]: less than 100 nM and less than 100 nM.
`CC(C)OC[C@H](O)c1cnc2c(cnn2-c2ccc(C(=O)O)cc2)c1` [Compound 48A] showed an EC50 with A549 of 100 to 1000 nM. For the same molecule, the IC50 against 15-PGDH/HPGD is less than 100 nM.
Taken in the same sequence, the figures for `O[C@H](COC1CCC1)c1cnc2c(cnn2-c2ccc(N3CCCC3)cc2)c1` [Compound 75A] were 100 to 1000 nM and 100 to 1000 nM.
In the case of `CCOC1([C@H](O)c2cnc3c(cnn3-c3ccc(C(=O)O)cc3)c2)CC1` [Compound 58A], in the experiment on A549, the EC50 was not below 1000 nM. Further, at 15-PGDH/HPGD, the IC50 is not below 1000 nM.
In the experiment with A549, `CC(C)OC[C@@H](O)c1cnc2c(ccn2-c2cccc(-c3nnc[nH]3)c2)n1` [Compound 20A] came in with an EC50 of less than 100 nM. At 15-PGDH/HPGD, this molecule showed an IC50 of less than 100 nM.
In the experiment with A549, `O=C(NC[C@@H](O)c1cnc2c(cnn2-c2cccc(-c3nnc[nH]3)c2)c1)C1CC1` [Compound 39B] returned an EC50 not below 1000 nM. At 15-PGDH/HPGD, this molecule had an IC50 of 100 to 1000 nM.
In the experiment on A549, `CC(C)(OCC(F)F)[C@@H](O)c1cnc2c(cnn2-c2cccc(-c3nnc[nH]3)c2)c1` [Compound 61A] registered an EC50 of less than 100 nM. This molecule also gave a half-maximal inhibitory concentration (IC50) on 15-PGDH/HPGD of less than 100 nM.
Molecule `COCC[C@H](O)c1cnc2c(cnn2-c2cccc(-c3nnc[nH]3)c2)c1` [Compound 36B] returned an EC50 in the experiment with A549 of 100 to 1000 nM. Besides, the IC50 on 15-PGDH/HPGD is less than 100 nM.
The matching figures for `CCOC1([C@@H](O)c2cnc3c(cnn3-c3ccc(C(=O)O)cc3)c2)CC1` [Compound 58B]: 100 to 1000 nM and less than 100 nM.
With `CC1(C)CC(OC[C@H](O)c2cnc3c(cnn3-c3ccc(C(=O)O)nc3)c2)C1` [Compound 116A], in the experiment with A549, the EC50 was not below 1000 nM. The IC50 on 15-PGDH/HPGD lay within 100 to 1000 nM.
Taken in the same sequence, the figures for `C[C@H]1C[C@H](OC[C@@H](O)c2cnc3c(cnn3-c3ccc(C(=O)O)cc3)c2)C1` [Compound 127D] were less than 100 nM and less than 100 nM.
As for `O=C(O)[C@H]1CCN(c2ccc(-n3ncc4cc([C@@H](O)COC5CCC5)cnc43)cc2)C1` [Compound 87A], in the experiment with A549, the concentration giving a half-maximal response (EC50) is not below 1000 nM. For the same molecule, the IC50 against 15-PGDH/HPGD is less than 100 nM.
With `CC(C)OCC[C@H](O)c1cnc2c(cnn2-c2cccc(-c3nnc[nH]3)c2)c1` [Compound 44B], the EC50 in the experiment on A549 was in the range of 100 to 1000 nM. The IC50 at 15-PGDH/HPGD is less than 100 nM.
`CC1(COC[C@H](O)c2cnc3c(cnn3-c3ccc(C(=O)O)cc3)c2)CC1` [Compound 106A] yielded an EC50 in the experiment on A549 of less than 100 nM. This molecule also gave an IC50 against 15-PGDH/HPGD of less than 100 nM.
The molecule `O[C@@H](COC1CCC1)c1cnc2c(cnn2-c2ccc(N3CCOCC3)cc2)c1` [Compound 76A] displayed an EC50 in the experiment on A549 not below 1000 nM. The IC50 against 15-PGDH/HPGD fell in the range of 100 to 1000 nM.
The matching figures for `CCOC1([C@H](O)c2cnc3c(cnn3-c3ccc(C(=O)O)cc3)c2)CCC1` [Compound 85A]: not below 1000 nM and 100 to 1000 nM.
Taken in the same sequence, the figures for `CN(C)C(=O)c1cccc(-n2ncc3cc([C@@H](O)COC4CCC4)cnc32)c1` [Compound 111A] were 100 to 1000 nM and less than 100 nM.
In turn, `O=C(O)c1ccc(-n2ccc3nc([C@H](O)C4CC(F)(F)C4)cnc32)cc1` [Compound 46A] gave an EC50 in the experiment on A549 of less than 100 nM. The IC50 against 15-PGDH/HPGD is less than 100 nM.
Regarding `O=C(O)c1ccc(-n2ncc3cc([C@H](O)COCC4CC4)ccc32)cc1` [Compound 114B], in the experiment on A549, the EC50 is 100 to 1000 nM. Also, the IC50 against 15-PGDH/HPGD was less than 100 nM.
Taken in the same sequence, the figures for `O[C@@H](c1cnc2c(cnn2-c2cccc(-c3nnc[nH]3)c2)c1)C1CC2CC2C1` (stereo partly shown) [Compound 50A] were less than 100 nM and less than 100 nM.
Taken in the same sequence, the figures for `O=C(O)c1ccc(-n2ncc3cc([C@H](O)COC4(C(F)(F)F)CCC4)cnc32)cc1` [Compound 115B] were less than 100 nM and less than 100 nM.
Molecule `CC(C)(C)OC[C@@H](O)c1cnc2c(cnn2-c2cccc(-c3nnc[nH]3)c2)c1` [Compound 32B] gave an EC50 with A549 of less than 100 nM. The molecule also showed an IC50 at 15-PGDH/HPGD of less than 100 nM.
